Measured values: ChEMBL document CHEMBL5584300, “Bioinformatic Approaches Identify Hybrid Antibiotics against Tuberculosis via d-Amino Acid-Activating Adenylation Domains from Cordyceps militaris” (J Nat Prod, 2024)
Values after ≈ are worked out from the molar mass of the structure shown. Active and inactive are the calls of the source. No cut-off for these calls is given here.

How the values were obtained:
[1] = Cytotoxicity against human DLD-1 cells assessed as reduction in cell viability incubated for 48 hrs by sulforhodamine B assay; type: toxicity, cell-based
[2] = Cytotoxicity against human HGC-27 cells assessed as reduction in cell viability incubated for 48 hrs by sulforhodamine B assay; type: toxicity, cell-based
[3] = Cytotoxicity against human HepG2 cells assessed as reduction in cell viability incubated for 48 hrs by sulforhodamine B assay; type: toxicity, cell-based
[4] = system: Mycobacterium tuberculosis; test: Antitubercular activity against Mycobacterium tuberculosis H37Rv ATCC 27294 assessed as reduction in microbial growth incubated for 6 days by microplate Alamar Blue assay; type: functional; settings: H37Rv ATCC 27294, 144 h, time 6 day
[5] = system: Mycolicibacterium smegmatis; test: Antitubercular activity against Mycobacterium smegmatis mc2 155 assessed as reduction in microbial growth incubated for […] by CLSI based broth microdilution method; type: functional
[6] = system: Mycobacterium tuberculosis; test: Antitubercular activity against Mycobacterium tuberculosis H37Rv ATCC 27294 infected in BALB/c mouse chronic model assessed as log reduction in lung at 10 mg/kg drug administered after 28 days post infection and measured after 4 weeks; type: functional
[7] = system: Mycobacterium tuberculosis; test: Antitubercular activity against Mycobacterium tuberculosis H37Rv ATCC 27294 infected in BALB/c mouse assessed as reduction in bacterial count in lung at 10 mg/kg measured after 4 weeks; type: functional, organism-based
[8] = system: Mycobacterium tuberculosis; test: Antitubercular activity against Mycobacterium tuberculosis H37Rv ATCC 27294 assessed as reduction in microbial growth incubated for 6 days under anaerobic condition by microplate Alamar Blue assay; type: functional; settings: H37Rv ATCC 27294, 144 h, time 6 day
[9] = system: Mycobacterium tuberculosis; test: Antitubercular activity against Mycobacterium tuberculosis H37Rv ATCC 27294 assessed as reduction in microbial growth incubated for 6 days under aerobic condition by microplate Alamar Blue assay; type: functional; settings: H37Rv ATCC 27294, 144 h, time 6 day
[10] = system: Mycobacterium tuberculosis; test: Antitubercular activity against Mycobacterium tuberculosis H37Rv ATCC 27294 infected in BALB/c mouse assessed as log reduction in lung at 10 mg/kg measured after 4 weeks; type: functional
[11] = Cytotoxicity against human Hep3B cells assessed as reduction in cell viability incubated for 48 hrs by sulforhodamine B assay; type: toxicity, cell-based, Hep 3B2
[12] = system: Staphylococcus aureus; test: Antibacterial activity against methicillin-resistant Staphylococcus aureus ATCC 43300 assessed as reduction in microbial growth incubated for 20 hrs by CLSI based broth microdilution method; type: functional
[13] = system: Mycobacterium tuberculosis; test: Antitubercular activity against Mycobacterium tuberculosis H37Rv ATCC 27294 infected in BALB/c mouse chronic model assessed as log reduction in lung at 320 mg/kg drug administered twice daily after 28 days post infection and measured after 4 weeks; type: functional
[14] = system: Mycobacterium tuberculosis; test: Antitubercular activity against Mycobacterium tuberculosis H37Rv ATCC 27294 infected in BALB/c mouse assessed as reduction in bacterial count at 80 mg/kg measured after 4 weeks relative to control; type: functional; design: scale not given: the % may be the effect or the level left
[15] = system: Mycobacterium tuberculosis; test: Antitubercular activity against Mycobacterium tuberculosis H37Rv ATCC 27294 infected in BALB/c mouse assessed as log reduction in lung at 160 mg/kg measured after 4 weeks; type: functional
[16] = system: Mycobacterium tuberculosis; test: Antitubercular activity against Mycobacterium tuberculosis H37Rv ATCC 27294 infected in BALB/c mouse assessed as reduction in bacterial count at 10 to 40 mg/kg measured after 4 weeks; type: functional, organism-based; settings: dose 10-40 mg/kg
[17] = system: Staphylococcus aureus; test: Antibacterial activity against methicillin-resistant Staphylococcus aureus ATCC 6538 assessed as reduction in microbial growth incubated for 20 hrs by CLSI based broth microdilution method; type: functional
[18] = system: Enterococcus faecalis; test: Antibacterial activity against Enterococcus faecalis ATCC 29212 assessed as reduction in microbial growth incubated for 20 hrs by CLSI based broth microdilution method; type: functional
[19] = system: Staphylococcus aureus; test: Antibacterial activity against Staphylococcus aureus ATCC 25923 assessed as reduction in microbial growth incubated for 20 hrs by CLSI based broth microdilution method; type: functional
[20] = system: Mycobacterium tuberculosis; test: Bactericidal activity against Mycobacterium tuberculosis H37Rv ATCC 27294 expressing pFCA-luxAB assessed as reduction in bacterial count at 16 times MIC preincubated for 10 days under hypoxic condition followed by aerobic condition for 28 hrs by LORA; type: functional, organism-based; settings: time 268.0 hrs
[21] = system: Bacillus subtilis; test: Antibacterial activity against Bacillus subtilis ATCC 9372 assessed as reduction in microbial growth incubated for 20 hrs by CLSI based broth microdilution method; type: functional
[22] = system: Staphylococcus aureus; test: Antibacterial activity against Staphylococcus aureus ATCC 6538P assessed as reduction in microbial growth incubated for 20 hrs by CLSI based broth microdilution method; type: functional
[23] = system: Enterococcus faecalis; test: Antibacterial activity against vancomycin-resistant Enterococcus faecalis ATCC 51299 assessed as reduction in microbial growth incubated for 20 hrs by CLSI based broth microdilution method; type: functional
[24] = system: Escherichia coli; test: Antibacterial activity against Escherichia coli ATCC 25922 assessed as reduction in microbial growth incubated for 20 hrs by CLSI based broth microdilution method; type: functional
[25] = system: Mycobacterium tuberculosis; test: Antitubercular activity against Mycobacterium tuberculosis H37Rv ATCC 27294 infected in BALB/c mouse assessed as reduction in bacterial count measured after 4 weeks; type: functional, organism-based; settings: dose 160-640 mg/kg
[26] = system: Mycobacterium tuberculosis; test: Bactericidal activity against Mycobacterium tuberculosis H37Rv ATCC 27294 assessed as reduction in bacterial count at 16 time MIC by time kill assay; type: functional, organism-based; settings: time 2-10 day, TDE = time-dependent effect

CC(=O)O[C@H]1C(=O)[C@@]2(C)[C@H]([C@H](OC(=O)c3ccccc3)[C@]3(O)C[C@H](OC(=O)[C@H](O)[C@@H](NC(=O)c4ccccc4)c4ccccc4)C(C)=C1C3(C)C)[C@]1(OC(C)=O)CO[C@@H]1C[C@@H]2O [PACLITAXEL]
IC50 at 48 h [1]: 0.031 µg/mL (≈ 0.0363 µM)
IC50 at 48 h [2]: 0.008 µg/mL (≈ 0.00937 µM)
IC50 at 48 h [3]: 0.016 µg/mL (≈ 0.0187 µM)

C/C=C/C=C/[C@H]1C(C)=C[C@H]2C[C@@H](C)CC[C@@H]2[C@@]1(C)/C(O)=C1/C(=O)[C@@H](CO)N(C)C1=O
MIC [4]: 16 µg/mL

CO[C@H]1/C=C/O[C@@]2(C)Oc3c(C)c(O)c4c(O)c(c(/C=N/N5CCN(C)CC5)c(O)c4c3C2=O)NC(=O)/C(C)=C\C=C\[C@H](C)[C@H](O)[C@@H](C)[C@@H](O)[C@@H](C)[C@H](OC(C)=O)[C@@H]1C [RIFAMPIN]
MIC [5]: 16 µg/mL
Activity [6]: 3 log10CFU
Activity [7]: inactive
MIC [8]: > 64 µg/mL
MIC [9]: 0.25 µg/mL
MIC [4]: 0.25 µg/mL

NNC(=O)c1ccncc1 [ISONIAZID]
Activity [6]: 3 log10CFU
Activity [10]: 2.5 log10CFU

CC1=C[C@H]2C[C@@H](C)CC[C@]2(C)[C@@](C)(C(=O)C2=C(O)[C@@H](CO)NC2=O)[C@H]1/C=C/C=C/C=C/C[C@@H](C)O
MIC [5]: > 64 µg/mL
MIC [8]: > 64 µg/mL
MIC [9]: 0.5 µg/mL

CC1=C[C@H]2C[C@@H](C)CC[C@]2(C)[C@@](C)(C(=O)C2=C(O)[C@@H](CO)N(C)C2=O)[C@H]1/C=C/C=C/C=C/C[C@@H](C)O
IC50 at 48 h [11]: > 64 µg/mL
MIC [5]: 0.25 µg/mL
MIC [12]: 4 µg/mL
IC50 at 48 h [1]: > 64 µg/mL
Activity [13]: 2.3 log10CFU
Activity [14]: 100%
Activity [15]: 2 log10CFU
Activity [16]: Dose-Dependent Effect
MIC [17]: 4 µg/mL
MIC [8]: > 64 µg/mL
MIC [18]: 4 µg/mL
MIC [9]: 0.016 µg/mL
MIC [19]: 8 µg/mL
Activity [20]: inactive
MIC [21]: 8 µg/mL
MIC [22]: 8 µg/mL
MIC [23]: 8 µg/mL
IC50 at 48 h [2]: > 64 µg/mL
MIC [24]: > 64 µg/mL
Activity [25]: Dose-Dependent Effect
IC50 at 48 h [3]: > 64 µg/mL
Activity [26]: Tde

CC1=C[C@@H]2C[C@@H](C)CC[C@]2(C)[C@@](C)(C(=O)C2=C(O)[C@@H](CO)NC2=O)[C@H]1/C=C/C=C/C=C/C[C@@H](C)O
MIC [5]: > 64 µg/mL
MIC [8]: > 64 µg/mL
MIC [9]: 2 µg/mL

CC1(C)S[C@@H]2[C@H](NC(=O)[C@H](N)c3ccccc3)C(=O)N2[C@H]1C(=O)O [AMPICILLIN]
MIC [12]: > 64 µg/mL
MIC [17]: 2 µg/mL
MIC [18]: 2 µg/mL
MIC [19]: 4 µg/mL
MIC [21]: 4 µg/mL
MIC [22]: > 64 µg/mL
MIC [23]: 4 µg/mL

CC1=C[C@H]2C[C@@H](C)CC[C@@H]2[C@@](C)(C(=O)C2=C(O)[C@H](CO)N(C)C2=O)[C@H]1/C=C/C=C/C=C/C[C@@H](C)O
MIC [5]: > 64 µg/mL
MIC [8]: > 64 µg/mL
MIC [9]: 1 µg/mL

C/C=C/[C@@H]1C=C[C@@H]2C[C@H](C)CC[C@H]2[C@]1(C)/C(O)=C1/C(=O)[C@H](CO)N(C)C1=O
MIC [4]: > 64 µg/mL
